According to patent US7838263B2, “Methods of identifying a plant with an Nsf1 locus” (E. I. du Pont de Nemours and Company, priority 2006, dated 2010):

What was measured:
[1] = system: transgenic soybean plants comprising the maize Nsf1 gene; assay: T1 transgenic soybean plant herbicide efficacy testing; assay type: in vivo, Glycine max; details: sprayed at V3 stage; for tolerance of one of the two T1 events compared to the controls: first event, 8 DAT and 15 DAT; for tolerance of the second T1 event compared to the controls: 15 DAT
Procedure: Two events from the T0 generation were advanced to the T1 generation for additional herbicide efficacy testing of the Nsf1 gene. Replicates of two controls, as well as T1 plants, were grown in greenhouse experiments and sprayed with mesotrione at one of two rates (200 g/ha or 50 g/ha), nicosulfuron (70 g/ha), or rimsulfuron (35 g/ha) at the V3 growth stage. All herbicide treatments were applied with 1% w/w modified seed oil adjuvant in a spray volume of 374 L/ha. Plants were rated for herbicide response at eight days after application using a 1 to 9 score as used in the T0 testing.
An expanded herbicide efficacy test was developed in a second T1 plant experiment for the same two events advanced from the T0 generation. […] All herbicide treatments were applied in a spray volume of 287 L/ha. Isoxaflutole (140 g/ha), topramezone (140 g/ha), and sulcotrione (140 g/ha) were applied with 1% w/w modified seed oil adjuvant. Diuron treatments (560 g/ha) were applied with 1% w/w petroleum crop oil adjuvant. Acifluorfen (4480 g/ha), sulfentrazone (140 g/ha), flumioxazine (140 g/ha), and dicamba (280 g/ha) were applied with 0.25% w/w nonionic surfactant. Rimsulfuron (35 g/ha) treatments were applied with 0.5% w/w basic blend adjuvant. At eight and fifteen days after treatment, plants were rated visually for crop injury using a 0 to 100 scale (0=no injury to 100=dead plant).

corn lines = assay: Testing of maize plants for sensitivity to nicosulfuron; assay type: in vivo, Zea mays; details: misted with 2.3 mM nicosulfuron, 0.5% v/v Kinetic surfactant, approximately V3 stage
Procedure: In order to determine if the Nsf1 allele was consistent across maize lines, three corn lines with unknown sensitivity levels to nicosulfuron were tested to determine their reaction and then evaluate their sequences. Plants were misted with a 2.3 mM nicosulfuron, 0.5% v/v Kinetic surfactant solution at approximately the V3 stage. Both known resistant and sensitive lines were also grown and sprayed as controls. […] Three corn lines with unknown sensitivity levels to nicosulfuron were tested to determine their reaction. Plants were misted with a 2.3 mM nicosulfuron, 0.5% v/v Kinetic surfactant solution at approximately the V3 stage. Both known resistant and sensitive lines were also grown and sprayed as controls.

[2] = system: T0 soybean plants transformed with the Nsf1 gene; assay: T0 transgenic soybean plant herbicide response, visual score 1 to 9; assay type: in vivo, Glycine max
Source text: Two different constructs comprising the Nsf1 gene were created to examine herbicide efficacy of the gene when transformed into soybean. The Nsf1 constructs were co-bombarded with a 35S:HYG insert to permit event selection using hygromycin. At the V2 to V6 growth stage, a total of 127 T0 plants were sprayed with 35 g/ha rimsulfuron. All rimsulfuron treatments were applied with 0.2% w/w nonionic surfactant in a spray volume of 287 L/ha. In addition to the T0 plants, replications of three different controls were included—two positive and one negative. Individual plants were evaluated for herbicide response at ten days after treatment, and assigned a visual response score from 1 to 9 (1=dead plant to 9=no effect observed). Based upon high tolerance scores to the initial rimsulfuron spray, five T0 events were sprayed with an additional 35 g/ha rimsulfuron. Plants were rated for visual tolerance using a 1 to 9 score at ten days after the second application.

Row | Structure (SMILES) | tolerance of one of the two T1 events compared to the controls [1] | tolerance of the second T1 event compared to the controls [1] | also measured
1 | O=C(O)c1cc(Oc2ccc(C(F)(F)F)cc2Cl)ccc1[N+](=O)[O-] [acifluorfen] | significantly better tolerance | significantly better tolerance | 
2 | COc1c(Cl)ccc(Cl)c1C(=O)O [dicamba] | significantly better tolerance | significantly better tolerance | 
3 | CN(C)C(=O)Nc1ccc(Cl)c(Cl)c1 [diuron] | significantly better tolerance |  | 
4 | C#CCN1C(=O)COc2cc(F)c(N3C(=O)C4=C(CCCC4)C3=O)cc21 [flumioxazine] | significantly better tolerance |  | 
5 | CS(=O)(=O)c1cc(C(F)(F)F)ccc1C(=O)c1cnoc1C1CC1 [isoxaflutole] | significantly better tolerance | significantly better tolerance | 
6 | CS(=O)(=O)c1ccc(C(=O)C2C(=O)CCCC2=O)c([N+](=O)[O-])c1 [mesotrione] | significantly better tolerance | significantly better tolerance | 
7 | COc1cc(OC)nc(NC(=O)NS(=O)(=O)c2ncccc2C(=O)N(C)C)n1 [nicosulfuron] |  |  | reaction of line A188 to nicosulfuron (corn lines; line A188): sensitive; reaction of line Black Mexican Sweet (BMS) to nicosulfuron (corn lines; line BMS): resistant; reaction of line Q66 to nicosulfuron (corn lines; line Q66): resistant
8 | CCS(=O)(=O)c1cccnc1S(=O)(=O)NC(=O)Nc1nc(OC)cc(OC)n1 [rimsulfuron] | significantly better tolerance | significantly better tolerance | T0 events with improved level of tolerance after an additional application ([2]; after an additional application of 35 g/ha rimsulfuron): Three of 51; T0 events with improved tolerance compared to the controls ([2]; ten days after treatment with 35 g/ha rimsulfuron, V2 to V6 stage): 4 of 51
9 | CS(=O)(=O)c1ccc(C(=O)C2C(=O)CCCC2=O)c(Cl)c1 [sulcotrione] | significantly better tolerance | significantly better tolerance | 
10 | Cc1nn(-c2cc(NS(C)(=O)=O)c(Cl)cc2Cl)c(=O)n1C(F)F [sulfentrazone] | significantly better tolerance | significantly better tolerance | 
11 | Cc1c(C(=O)c2cnn(C)c2O)ccc(S(C)(=O)=O)c1C1=NOCC1 [topramezone] | significantly better tolerance | significantly better tolerance | 
